Experimental data: PubChem BioAssay (NCI)
Values joined by “and” are separate entries in the source; they are usually repeats but may differ in a detail not shown here. Identical values can stand only once.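 Values below derive from 48-hour exposures of cells grown in 96-well plates, with endpoints linearly interpolated between the two concentrations bracketing the appropriate inhibition level. The concentration for 50% growth inhibition is given as GI50. TGI denotes the concentration required for complete inhibition of growth.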

Key:
Experiment in all cases: NCI anticancer screen, dose series, 48 h
[1] = system: SW-620 colon
[2] = system: CCRF-CEM leukemia
[3] = system: A498 renal
[4] = system: NCI-H522 lung
[5] = system: RPMI-8226 leukemia
[6] = system: HCC-2998 colon
[7] = system: EKVX NSCLC
[8] = system: SK-MEL-2 melanoma
[9] = system: SK-OV-3 ovarian
[10] = system: UO-31 renal
[11] = system: MCF7 breast
[12] = system: UACC-257 melanoma
[13] = system: MDA-MB-231 breast
[14] = system: T-47D breast
[15] = system: LOX IMVI melanoma

SMILES | TGI [1] | TGI [2] | TGI [3] | TGI [4] | TGI [5] | TGI [6] | TGI [7] | TGI [8] | TGI [9] | TGI [10] | TGI [11] | TGI [12] | TGI [13] | TGI [14] | GI50 [2] | GI50 [8] | TGI [15] | GI50 [11]
COC(=N)C12C(N)=NC(OC)(OC)C1(C#N)C21C(=O)N(c2ccccc2)N=C1C (configuration not stated) | > 100 µM | > 100 µM | > 100 µM | > 100 µM | > 100 µM | > 100 µM | > 100 µM | > 100 µM | > 100 µM | > 100 µM | > 100 µM | > 100 µM | > 100 µM | > 100 µM |  |  |  | 
CC(=O)OC1COC(n2c(N)c(C#N)c(C)c(C#N)c2=S)C(OC(C)=O)C1OC(C)=O (configuration not stated) | > 100 µM | > 100 µM | > 100 µM | > 100 µM | > 100 µM | > 100 µM |  | > 100 µM | > 100 µM | > 100 µM | > 100 µM | > 100 µM | > 100 µM | > 100 µM | > 100 µM and 32 µM | > 100 µM and 26 µM | > 100 µM | 
COc1cc(-c2coc3c(OC)c(OC4OC(CO)C(O)C(O)C4O)c(OC)cc3c2=O)cc(OC)c1C (configuration not stated) | > 41.3 µM | > 41.7 µM |  | 11.1 µM | > 100 µM | 18.6 µM | 27.3 µM | 41.1 µM | 23.4 µM | 21 µM | 25.8 µM | > 31.6 µM | > 54.5 µM | 45.1 µM |  |  | > 31.2 µM | 
CNC(=O)CCNC(=O)CCC(=O)OC | > 100 µM |  | > 100 µM |  |  |  |  | > 100 µM | > 100 µM | > 100 µM | > 100 µM |  | > 100 µM | > 100 µM |  |  |  | 
O=[N+]([O-])C(=C(N1CCOCC1)N1CCOCC1)/C(Cl)=C(\Cl)[N+](=O)[O-] | 5.27 µM | 96.8 µM | 36.1 µM | 2.89 µM |  | 39.6 µM | 23.2 µM | 32.2 µM | > 100 µM | 18 µM | 7.73 µM | 10.5 µM | 10.1 µM | 4.39 µM |  |  | 5.19 µM | 
C=C(C)[C@@H]1CC[C@]2(C(=O)O)CC[C@]3(C)[C@H](CC[C@@H]4[C@@]5(C)CC[C@H](C(=O)/C=C/c6ccc(O)cc6)C(C)(C)[C@@H]5CC[C@]43C)[C@@H]12 | 15.2 µM | 23.6 µM | 26.5 µM | 39.5 µM |  | 11.4 µM | 24.4 µM | 46.8 µM | 36.3 µM | 18.4 µM | 11.5 µM | 16.5 µM | 23 µM | 20.7 µM |  |  | 22.4 µM | 
C/C=C(/C)C(=O)O[C@H]1C(C)=C[C@]23C(=O)[C@@H](C=C(COC(C)=O)[C@@H](O)[C@]12O)[C@H]1[C@@H](C[C@H]3C)[C@@]1(C)OC(=O)/C(C)=C\C | 9.76 µM | 5.21 µM | 6.07 µM | 6.07 µM |  | 5.59 µM | 6.38 µM | 6.01 µM | 8.2 µM | 2.16 µM | 6.11 µM | 10.4 µM | 8.18 µM | 3.29 µM |  |  | 9.65 µM | 
C=C[C@@]1(C)CC(=O)[C@]2(O)[C@@]3(C)[C@@H](OC(C)=O)CCC(C)(C)[C@@H]3[C@H](OC(C)=O)[C@H](OC(C)=O)[C@@]2(C)O1 | > 100 µM |  | > 100 µM |  |  | > 100 µM | > 100 µM | > 100 µM | > 100 µM | > 100 µM | > 100 µM | > 100 µM | > 100 µM | > 100 µM |  |  | > 100 µM | 
NC1CC(=O)c2cc(Br)sc21 (configuration not stated) | > 100 µM | > 100 µM | > 100 µM |  | > 100 µM | > 100 µM | > 100 µM | > 100 µM | > 100 µM | > 100 µM | > 100 µM | > 100 µM | > 100 µM | > 100 µM |  |  |  | 
Cc1cc(Cl)ccc1N=NC(=O)NNc1ccc(Cl)cc1C | 30.2 µM | 58.5 µM | 21.8 µM | 35.1 µM | 89.4 µM | 24.1 µM |  | 28 µM |  | 29.6 µM |  | 33.1 µM | 26.6 µM | 26.6 µM |  |  | 30.6 µM | 
CCOC(=O)c1ccc(C(=O)/C(C#N)=C2\CCCN2)[nH]1 | > 100 µM | > 100 µM | > 100 µM |  | > 100 µM | > 100 µM | > 100 µM | > 100 µM | > 100 µM | > 100 µM | > 100 µM | > 100 µM | > 100 µM | > 100 µM |  |  | > 100 µM | 
O=C1CCCc2cc3c(cc21)CCC3C(=O)O (configuration not stated) | > 100 µM | > 100 µM |  | > 100 µM | > 100 µM | > 100 µM | > 100 µM | > 100 µM | > 100 µM | > 100 µM | > 100 µM | > 100 µM | > 100 µM | > 100 µM |  |  | > 100 µM | 
CCCCCCCCCCCCCCCCP(=O)(O)OP(=O)(O)OCC1OC(n2cnc3c(N)ncnc32)C(O)C1O (configuration not stated) | 88.1 µM | 97.4 µM |  | 41.7 µM |  | 44.8 µM | > 100 µM | > 100 µM | > 100 µM | 30 µM | 45.7 µM | 60 µM | > 100 µM | > 100 µM |  |  | 70.5 µM | 
CCOC(=O)c1c(NC(=O)Nc2ccccc2)c(C(N)=O)c2n1CCCCC2 | > 100 µM | > 100 µM | > 100 µM |  | > 100 µM | > 100 µM | > 100 µM | > 100 µM | > 100 µM | > 100 µM | > 100 µM | > 100 µM | > 100 µM | > 100 µM |  |  | > 100 µM | 
C=C[C@H]1CN2CCc3c([nH]c4c([C@H]5CCCN5C)c(O)ccc34)[C@@H]2C[C@@H]1C[C@H]1c2[nH]c3ccccc3c2CCN1C | 2.93 µM | 2.11 µM |  | 3.52 µM |  | 1.21 µM | 3.34 µM | 3.53 µM | 3.31 µM | 3.24 µM | 2.22 µM | 3.54 µM | 3.41 µM | 3.72 µM |  |  | 2.4 µM | 1.05 µM
N#CS/C(Cl)=C(/C(Cl)=C(Cl)Cl)[N+](=O)[O-] | > 100 µM | > 100 µM | > 100 µM |  |  | > 100 µM | > 100 µM |  | > 100 µM | > 100 µM | > 100 µM | > 100 µM | > 100 µM | > 100 µM |  |  | 39.8 µM | 
